Source: patent US20250346600A1, “TRICYCLIC DERIVATIVES AND RELATED USES” (MOMA Therapeutics, Inc., priority 2023, published 2025)
Where two headings read alike, the source gives them in different places.

How the values were obtained:
HT29 cells = assay: HT29 (MSS) 7 day viability, CellTiter Glo; type: cell-based; settings: 7 days, read-out: HT29 (MSS) Viability 7 Day CTGAbs AC50
Outline: (§1)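 Luminescence read-out (CellTiter Glo) after 7-day compound exposure at 37 °C. Seeding density 50 cells/well for HCT116, 500 cells/well for HT29. Background from cell-free medium wells; IC50 by four-parameter logistic fit, geometric mean of at least 2 replicates.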

[1] = biological target: T1, Full length WRN protein (aa 2-1432) (Homo sapiens (Human), UniProt Q14191); assay: WRN ATPase ADP-Glo biochemical assay, Assay Format A (10 μM ATP); settings: 0.25 nM WRN, 100 nM C6.18 ssDNA, 30 min preincubation, read-out: ATPase ADPGlo AC50 (uM)- Assay Format A
T1 sequence (Q14191 2-1432): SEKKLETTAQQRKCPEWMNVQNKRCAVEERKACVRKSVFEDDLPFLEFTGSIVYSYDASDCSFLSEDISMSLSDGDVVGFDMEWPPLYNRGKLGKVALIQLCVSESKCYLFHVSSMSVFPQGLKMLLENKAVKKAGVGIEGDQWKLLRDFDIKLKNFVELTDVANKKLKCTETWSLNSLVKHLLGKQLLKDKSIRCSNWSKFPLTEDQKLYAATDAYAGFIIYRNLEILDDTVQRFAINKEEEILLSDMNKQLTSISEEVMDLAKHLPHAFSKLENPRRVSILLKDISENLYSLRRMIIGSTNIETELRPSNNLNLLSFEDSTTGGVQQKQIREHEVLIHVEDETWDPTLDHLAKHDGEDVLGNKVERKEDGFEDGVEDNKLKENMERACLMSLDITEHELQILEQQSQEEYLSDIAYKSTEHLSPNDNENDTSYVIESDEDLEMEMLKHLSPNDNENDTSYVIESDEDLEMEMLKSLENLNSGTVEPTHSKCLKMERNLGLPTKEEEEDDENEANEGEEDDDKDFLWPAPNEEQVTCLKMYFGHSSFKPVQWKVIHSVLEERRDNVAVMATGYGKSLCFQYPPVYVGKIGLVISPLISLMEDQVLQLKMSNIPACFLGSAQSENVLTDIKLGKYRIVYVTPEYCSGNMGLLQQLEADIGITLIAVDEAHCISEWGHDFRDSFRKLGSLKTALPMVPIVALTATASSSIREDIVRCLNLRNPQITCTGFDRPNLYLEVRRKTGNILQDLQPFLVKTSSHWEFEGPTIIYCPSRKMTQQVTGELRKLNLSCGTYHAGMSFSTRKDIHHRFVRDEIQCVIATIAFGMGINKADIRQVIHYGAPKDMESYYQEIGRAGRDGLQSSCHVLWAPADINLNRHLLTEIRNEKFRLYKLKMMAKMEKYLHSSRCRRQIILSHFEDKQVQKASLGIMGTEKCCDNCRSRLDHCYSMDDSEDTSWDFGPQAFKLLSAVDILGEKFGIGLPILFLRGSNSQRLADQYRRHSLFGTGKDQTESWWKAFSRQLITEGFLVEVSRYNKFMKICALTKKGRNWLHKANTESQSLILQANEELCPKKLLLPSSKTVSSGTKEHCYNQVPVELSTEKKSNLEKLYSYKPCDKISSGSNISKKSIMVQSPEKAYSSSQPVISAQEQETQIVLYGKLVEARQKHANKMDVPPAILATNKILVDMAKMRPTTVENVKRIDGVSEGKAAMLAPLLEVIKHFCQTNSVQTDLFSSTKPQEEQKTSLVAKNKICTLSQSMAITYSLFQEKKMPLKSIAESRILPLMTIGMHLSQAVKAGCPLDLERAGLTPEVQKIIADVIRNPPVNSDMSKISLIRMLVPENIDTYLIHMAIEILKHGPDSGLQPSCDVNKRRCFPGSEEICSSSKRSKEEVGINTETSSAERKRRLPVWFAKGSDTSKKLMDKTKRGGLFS
Outline: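 Sf9-expressed FLAG-AVI-TEV-tagged WRN (0.5 nM) preincubated 30 min with compound (11-point 3-fold dilution). Reaction started with 200 nM C6.18 39-mer ssDNA and 20 μM ATP (addition concentrations), run 30 min at room temperature. ADP measured by ADP-Glo luminescence; IC50 from four-parameter fit, geometric mean of ≥2 runs.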

HCT116 cells = assay: HCT116 (MSI) 7 day viability, CellTiter Glo; type: cell-based; settings: 7 days, read-out: HCT116 (MSI) Viability 7 Day Abs AC50
Outline: as §1

[2] = biological target: T1, Full length WRN protein (aa 2-1432); assay: WRN ATPase ADP-Glo biochemical assay, Assay Format B (100 μM ATP); settings: 0.25 nM WRN, 100 nM C6.18 ssDNA, 60 min preincubation, read-out: ATPase ADPGlo AC50 (uM)- Assay Format B

Row | AC50 [1] [µM] | AC50 [2] [µM] | Compound | AC50 (HT29 cells; Homo sapiens, HT-29, 168 h) [nM] | AC50 (HCT116 cells; Homo sapiens, HCT-116, 168 h) [nM] | AC50 (HT29 cells) [nM] | AC50 (HCT116 cells) [nM]
1 | < 0.0015 | 0.005 to 0.015 | C=CC(=O)N1CC(OCC2CCOCC2)c2nn(-c3ccc(C4CC4)cc3)c3c2C(C1)N(C(=O)c1cnc(C(F)(F)F)cc1N)CC3 (stereo not drawn) [Compound 255, 1-(5-(4-amino-6-(trifluoromethyl)nicotinoyl)-2-(4-cyclopropylphenyl)-9-((tetrahydro-2H-pyran-4-yl)methoxy)-2,3,4,5,5a,6,8,9-octahydro-7H-1,2,5,7-tetraazabenzo[cd]azulen-7-yl)prop-2-en-1-one] | > 3000 | 1 to 100 |  | 
2 | < 0.0015 | 0.005 to 0.015 | C=CC(=O)N1CCc2nc(-c3ccc(C(C)C)cc3)n3c2C(C1)N(C(=O)c1ccc(Br)c2[nH]cnc12)CC3 (stereo not drawn) [Compound 38, 1-(5-(7-bromo-1H-benzo[d]imidazole-4-carbonyl)-2-(4-isopropylphenyl)-4,5,5a,6,8,9-hexahydro-1,2a,5,7-tetraazabenzo[cd]azulen-7(3H)-yl)prop-2-en-1-one] | > 3000 | 1 to 100 |  | 
3 | 0.015 to 0.055 | > 0.055 | C=CC(=O)N1CC(C)Oc2nn(-c3ccc(C(C)C)cc3)c3c2C(C1)N(C(=O)c1ccc(Br)c2[nH]cnc12)CC3 (stereo not drawn) [Compound 53, 1-(5-(7-bromo-1H-benzo[d]imidazole-4-carbonyl)-2-(4-isopropylphenyl)-9-methyl-2,3,4,5,5a,6,8,9-octahydro-7H-10-oxa-1,2,5,7-tetraazacycloocta[cd]inden-7-yl)prop-2-en-1-one] |  |  | > 3000 | 500 to 1000
4 | 0.0015 to 0.005 | 0.015 to 0.055 | C=CC(=O)N1CCc2nn(-c3ccc(C(C)C)cc3O)c3c2C(C1)N(C(=O)c1cnc(Br)c2[nH]cnc12)CC3 (stereo not drawn) [Compound 22, 1-(5-(4-bromo-3H-imidazo[4,5-c]pyridine-7-carbonyl)-2-(2-hydroxy-4-isopropylphenyl)-2,3,4,5,5a,6,8,9-octahydro-7H-1,2,5,7-tetraazabenzo[cd]azulen-7-yl)prop-2-en-1-one] | > 3000 | 250 to 500 |  | 
5 | > 0.055 | > 0.055 | C=CC(=O)N1CCc2nn(-c3ccc(C4CC4)cc3)c3c2C(C1)N(C(=O)c1ccn(CC(F)(F)F)c(=O)c1)CC3 (stereo not drawn) [Compound 68, 4-(7-acryloyl-2-(4-cyclopropylphenyl)-3,4,5,5a,6,7,8,9-octahydro-2H-1,2,5,7-tetraazabenzo[cd]azulene-5-carbonyl)-1-(2,2,2-trifluoroethyl)pyridin-2(1H)-one] | > 3000 | > 1000 |  | 
6 | < 0.0015 | 0.0015 to 0.005 | C=CC(=O)N1CC(OCc2nnc(C)s2)c2nn(-c3ccc(C4CC4)cc3)c3c2C(C1)N(C(=O)c1cnc(C(F)(F)F)cc1N)CC3 (stereo not drawn) [Compound 249, 1-(5-(4-amino-6-(trifluoromethyl)nicotinoyl)-2-(4-cyclopropylphenyl)-9-((5-methyl-1,3,4-thiadiazol-2-yl)methoxy)-2,3,4,5,5a,6,8,9-octahydro-7H-1,2,5,7-tetraazabenzo[cd]azulen-7-yl)prop-2-en-1-one] | > 3000 | 1 to 100 |  | 
7 | < 0.0015 | 0.015 to 0.055 | C=CC(=O)N1CCOc2nn(-c3ccc(C4CC4)cc3)c3c2C(C1)N(C(=O)c1ccc(Br)c2[nH]cnc12)CC3 (stereo not drawn) [Compound 49, 1-(5-(7-bromo-1H-benzo[d]imidazole-4-carbonyl)-2-(4-cyclopropylphenyl)-2,3,4,5,5a,6,8,9-octahydro-7H-10-oxa-1,2,5,7-tetraazacycloocta[cd]inden-7-yl)prop-2-en-1-one] | > 3000 | 1 to 100 |  | 
8 | 0.0015 to 0.005 | 0.015 to 0.055 | C=CC(=O)N1CCc2nn(-c3ccc(C45CC(C4)C5)c(F)c3)c3c2C(C1)N(C(=O)c1ccc(Br)c2[nH]cnc12)CC3 (stereo not drawn) [Compound 84, 1-(2-(4-(bicyclo[1.1.1]pentan-1-yl)-3-fluorophenyl)-5-(7-bromo-1H-benzo[d]imidazole-4-carbonyl)-2,3,4,5,5a,6,8,9-octahydro-7H-1,2,5,7-tetraazabenzo[cd]azulen-7-yl)prop-2-en-1-one] | > 3000 | 1 to 100 |  | 
9 | < 0.0015 | 0.005 to 0.015 | C=CC(=O)N1CCc2nn(-c3ccc(C4CCC4)c(O)c3)c3c2C(C1)N(C(=O)c1cnc(C(F)(F)F)c(O)c1)CC3 (stereo not drawn) [Compound 91, 1-(2-(4-cyclobutyl-3-hydroxyphenyl)-5-(5-hydroxy-6-(trifluoromethyl)nicotinoyl)-2,3,4,5,5a,6,8,9-octahydro-7H-1,2,5,7-tetraazabenzo[cd]azulen-7-yl)prop-2-en-1-one] | > 3000 | 250 to 500 |  | 
10 | < 0.0015 | 0.005 to 0.015 | C=CC(=O)N1CCc2nn(-c3ccc(C4CCC4)cc3)c3c2C(C1)N(C(=O)c1cnc(C(F)(F)F)nc1N)CC3 (stereo not drawn) [Compound 161, 1-(5-(4-amino-2-(trifluoromethyl)pyrimidine-5-carbonyl)-2-(4-cyclobutylphenyl)-2,3,4,5,5a,6,8,9-octahydro-7H-1,2,5,7-tetraazabenzo[cd]azulen-7-yl)prop-2-en-1-one] | > 3000 | 1 to 100 |  | 
11 | < 0.0015 | 0.005 to 0.015 | C=CC(=O)N1CCc2nn(-c3ccc(C(C)C)cc3O)c3c2C(C1)N(C(=O)c1cnc(C(F)(F)F)c(O)c1)CC3 (stereo not drawn) [Compound 21, 1-(2-(2-hydroxy-4-isopropylphenyl)-5-(5-hydroxy-6-(trifluoromethyl)nicotinoyl)-2,3,4,5,5a,6,8,9-octahydro-7H-1,2,5,7-tetraazabenzo[cd]azulen-7-yl)prop-2-en-1-one] | > 3000 | 1 to 100 |  | 
12 | < 0.0015 | 0.005 to 0.015 | C=CC(=O)N1CCc2nn(-c3ccc(C(C)C)cc3O)c3c2C(C1)N(C(=O)c1ccc(Br)c2[nH]cnc12)CC3 (stereo not drawn) [Compound 20, 1-(5-(7-bromo-1H-benzo[d]imidazole-4-carbonyl)-2-(2-hydroxy-4-isopropylphenyl)-2,3,4,5,5a,6,8,9-octahydro-7H-1,2,5,7-tetraazabenzo[cd]azulen-7-yl)prop-2-en-1-one] | > 3000 | 1 to 100 |  | 
13 | 0.0015 to 0.005 | 0.005 to 0.015 | C=CC(=O)N1CC(C)c2nn(-c3ccc(C(C)C)cc3)c3c2C(C1)N(C(=O)c1ccc(Br)c2[nH]cnc12)CC3 (stereo not drawn) [Compound 34, 1-(5-(7-bromo-1H-benzo[d]imidazole-4-carbonyl)-2-(4-isopropylphenyl)-9-methyl-2,3,4,5,5a,6,8,9-octahydro-7H-1,2,5,7-tetraazabenzo[cd]azulen-7-yl)prop-2-en-1-one] |  |  | > 3000 | 250 to 500
14 | < 0.0015 | 0.005 to 0.015 | C=CC(=O)N1CC(C)c2nn(-c3ccc(C4CCC4)cc3O)c3c2C(C1)N(C(=O)c1cnc(C(F)(F)F)cc1N)CC3 (stereo not drawn) [Compound 135, 1-(5-(4-amino-6-(trifluoromethyl)nicotinoyl)-2-(4-cyclobutyl-2-hydroxyphenyl)-9-methyl-2,3,4,5,5a,6,8,9-octahydro-7H-1,2,5,7-tetraazabenzo[cd]azulen-7-yl)prop-2-en-1-one] |  |  | > 3000 | 1 to 100
15 | 0.0015 to 0.005 | 0.015 to 0.055 | C=CC(=O)N1CCc2nn(-c3ccc(C(F)(F)F)nc3N)c3c2C(C1)N(C(=O)c1ccc(Br)c2[nH]c(C(F)F)nc12)CC3 (stereo not drawn) [Compound 136, 1-(2-(2-amino-6-(trifluoromethyl)pyridin-3-yl)-5-(7-bromo-2-(difluoromethyl)-1H-benzo[d]imidazole-4-carbonyl)-2,3,4,5,5a,6,8,9-octahydro-7H-1,2,5,7-tetraazabenzo[cd]azulen-7-yl)prop-2-en-1-one] | > 3000 | 100 to 250 |  | 
16 | 0.005 to 0.015 | 0.015 to 0.055 | C=CC(=O)N1CCc2nn(-c3ccc(C4CC4)c(F)c3O)c3c2C(C1)N(C(=O)c1cnc(OC(F)(F)F)c(F)c1N)CC3 (stereo not drawn) [Compound 258, 1-(5-(4-amino-5-fluoro-6-(trifluoromethoxy)nicotinoyl)-2-(4-cyclopropyl-3-fluoro-2-hydroxyphenyl)-2,3,4,5,5a,6,8,9-octahydro-7H-1,2,5,7-tetraazabenzo[cd]azulen-7-yl)prop-2-en-1-one] | > 3000 | 1 to 100 |  | 
17 | < 0.0015 | 0.005 to 0.015 | C=CC(=O)N1CCOc2nn(-c3ccc(C4CCC4)cc3)c3c2C(C1)N(C(=O)c1ccc(Br)c2[nH]ncc12)CC3 (stereo not drawn) [Compound 42, 1-(5-(7-bromo-1H-indazole-4-carbonyl)-2-(4-cyclobutylphenyl)-2,3,4,5,5a,6,8,9-octahydro-7H-10-oxa-1,2,5,7-tetraazacycloocta[cd]inden-7-yl)prop-2-en-1-one] | > 3000 | 1 to 100 |  | 
18 | < 0.0015 | 0.005 to 0.015 | C=CC(=O)N1CCc2nn(-c3ccc(C4CC4)cc3O)c3c2C(C1)N(C(=O)c1ccc(Br)nc1N)CC3 (stereo not drawn) [Compound 193, 1-(5-(2-amino-6-bromonicotinoyl)-2-(4-cyclopropyl-2-hydroxyphenyl)-2,3,4,5,5a,6,8,9-octahydro-7H-1,2,5,7-tetraazabenzo[cd]azulen-7-yl)prop-2-en-1-one] | > 3000 | 1 to 100 |  | 
